The text below walks through data of PubChem BioAssay (NCI).

Among the test systems are HT29 colon; NCI/ADR-RES ovarian; SK-MEL-5 melanoma; HOP-92 NSCLC; SK-MEL-28 melanoma; T-47D breast; SN12C renal; NCI-H522 lung; SF-268 CNS; OVCAR-3 ovarian.
What all share (assay): NCI anticancer screen, dose series, 48 h

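Each compound was tested at five concentrations against cells in 96-well plates for 48 hours. GI50: concentration for 50% inhibition of growth. At the TGI there is no net growth.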

Take `COc1ccc(-c2oc(=O)ccc2C#Cc2cc(OC)c(OC)c(OC)c2)cc1O`: the GI50 with HT29 colon is 37.9 µM; in the test with NCI/ADR-RES ovarian it was 24.4 µM; in the test on SK-MEL-5 melanoma it was 7.55 µM; in the test on HOP-92 NSCLC, 5.47 µM; with SK-MEL-28 melanoma, 37.7 µM; in the test on T-47D breast, 30.7 µM. The GI50 with SN12C renal is 41.5 µM; in the test on NCI-H522 lung, 8.7 µM; in the test on SF-268 CNS, 15.7 µM; with OVCAR-3 ovarian, 20.9 µM. Moreover, the TGI was > 100 µM in the test on HT29 colon; > 100 µM in the test with NCI/ADR-RES ovarian; 26.6 µM with SK-MEL-5 melanoma; 31.2 µM in the test with HOP-92 NSCLC; > 100 µM with SK-MEL-28 melanoma; > 100 µM in the test on T-47D breast. Also, the TGI in the test with SN12C renal is > 100 µM; in the test on NCI-H522 lung it was 37.5 µM; in the test with SF-268 CNS, 58.5 µM; with OVCAR-3 ovarian it was 70.6 µM.
Turning to `O=C1NC(=O)/C(=C/C=C/c2ccccc2)S1`, the GI50 in the test on HT29 colon was 12.1 µM; with NCI/ADR-RES ovarian, 2.87 µM; in the test with SK-MEL-5 melanoma, 2.58 µM; in the test with HOP-92 NSCLC, 11.1 µM; with SK-MEL-28 melanoma it was 15.5 µM; in the test on T-47D breast, 12.8 µM. Also, the GI50 in the test with SN12C renal is 2.05 µM; with NCI-H522 lung, 7.82 µM; in the test with SF-268 CNS, 2.96 µM; with OVCAR-3 ovarian, 2.88 µM. Besides, the TGI in the test with HT29 colon is > 100 µM; in the test with NCI/ADR-RES ovarian, > 100 µM; in the test on SK-MEL-5 melanoma, 22.5 µM; in the test on HOP-92 NSCLC, > 81.1 µM; in the test with SK-MEL-28 melanoma, 36 µM; in the test on T-47D breast, > 100 µM. Moreover, the TGI is > 100 µM in the test with SN12C renal, 52.7 µM in the test on NCI-H522 lung, > 70.2 µM with SF-268 CNS and 33.1 µM in the test with OVCAR-3 ovarian.
Take `Cn1nc(C(F)(F)F)c(-c2ccc(Cl)c(C(F)(F)F)c2)c1-c1ccc(OCc2ccc(Cl)cc2)cc1O`: the GI50 in the test on HT29 colon was 1.62 µM; with NCI/ADR-RES ovarian, 1.56 µM; in the test with SK-MEL-5 melanoma, 1.02 µM; in the test with HOP-92 NSCLC, 1.11 µM; in the test on SK-MEL-28 melanoma, 1.88 µM; in the test with T-47D breast, 1.27 µM. For the same compound, the GI50 was 1.65 µM in the test with SN12C renal, 1.47 µM in the test on NCI-H522 lung, 1.77 µM with SF-268 CNS and 1.66 µM in the test with OVCAR-3 ovarian. Further, the TGI with HT29 colon was determined as 5.42 µM; in the test on NCI/ADR-RES ovarian it was 4.99 µM; in the test with SK-MEL-5 melanoma, 2.23 µM; in the test with HOP-92 NSCLC, 3.02 µM; with SK-MEL-28 melanoma, 7.33 µM; with T-47D breast it was 5.32 µM. In addition, the TGI in the test on SN12C renal came out at 5.92 µM; in the test with NCI-H522 lung, 5.64 µM; with SF-268 CNS it was 7.52 µM; in the test with OVCAR-3 ovarian it was 5.8 µM.
For the compound `C=C1CCC2C3(C)COC(c4ccc(NC(C)=O)cc4)OC3CCC2(C)C1C/C=C1/C(=O)OCC1O` (stereo not drawn), the GI50 was 5.35 µM in the test on HT29 colon; 7.37 µM in the test with NCI/ADR-RES ovarian; 3.57 µM with SK-MEL-5 melanoma; 3.83 µM in the test with HOP-92 NSCLC; > 100 µM in the test on SK-MEL-28 melanoma; 2.53 µM with T-47D breast. Further, the GI50 in the test on SN12C renal was > 100 µM; with NCI-H522 lung, 4.53 µM; in the test with SF-268 CNS, > 100 µM; in the test with OVCAR-3 ovarian it was > 100 µM. The TGI with HT29 colon, in the test with NCI/ADR-RES ovarian, with SK-MEL-5 melanoma, in the test on HOP-92 NSCLC, in the test on SK-MEL-28 melanoma and in the test on T-47D breast was > 100 µM each time. In addition, the TGI in the test on SN12C renal, in the test with NCI-H522 lung, in the test with SF-268 CNS and in the test on OVCAR-3 ovarian was > 100 µM throughout.
Consider `CN(C)CCCNc1nn2c(=O)c3ccccc3nc2c2ccccc12`, for which the GI50 is 3.46 µM in the test on HT29 colon; 12.3 µM with NCI/ADR-RES ovarian; 7.74 µM with SK-MEL-5 melanoma; 4.13 µM with HOP-92 NSCLC; 15.8 µM in the test with SK-MEL-28 melanoma; 12.7 µM in the test with T-47D breast. Moreover, the GI50 was 5.95 µM in the test on SN12C renal, 2.14 µM with NCI-H522 lung, 7.25 µM in the test with SF-268 CNS and 10.5 µM with OVCAR-3 ovarian. The TGI in the test on HT29 colon is 14.7 µM; with NCI/ADR-RES ovarian, 35.5 µM; in the test on SK-MEL-5 melanoma, 20.9 µM; in the test on HOP-92 NSCLC it was 59.3 µM; in the test on SK-MEL-28 melanoma, 29.3 µM; in the test on T-47D breast it was 33.6 µM. Further, the TGI with SN12C renal is > 100 µM; in the test on NCI-H522 lung, 24 µM; in the test on SF-268 CNS, 37.9 µM; in the test on OVCAR-3 ovarian, 26.4 µM.
As for `Cc1ccc2c(c1)C(=O)c1c-2n(CCCN)c(=O)c2cc([N+](=O)[O-])ccc12`, the GI50 was 0.594 µM in the test with NCI/ADR-RES ovarian; 1.1 µM in the test on SK-MEL-5 melanoma; 0.435 µM in the test on HOP-92 NSCLC; 2.27 µM in the test with SK-MEL-28 melanoma; 0.157 µM with T-47D breast; 0.281 µM with SN12C renal. For the same compound, the GI50 was 0.2 µM in the test on NCI-H522 lung, 0.0373 µM in the test with SF-268 CNS and 0.521 µM in the test with OVCAR-3 ovarian. Further, the TGI was 1.45 µM with NCI/ADR-RES ovarian; 3.6 µM in the test with SK-MEL-5 melanoma; 1.18 µM in the test with HOP-92 NSCLC; 4.63 µM in the test on SK-MEL-28 melanoma; 0.461 µM in the test on T-47D breast; 1.02 µM in the test with SN12C renal. The TGI with NCI-H522 lung is 0.985 µM; in the test on SF-268 CNS it was 0.555 µM; in the test on OVCAR-3 ovarian, 1.32 µM.
In the case of `CCOC(=O)c1sc(-c2ccc(OS(=O)(=O)c3cccs3)c(C=O)c2)nc1C`, the GI50 was 1.8 µM in the test on NCI/ADR-RES ovarian; 1.56 µM in the test on SK-MEL-5 melanoma; 1.36 µM in the test on HOP-92 NSCLC; 2.01 µM with SK-MEL-28 melanoma; 1.21 µM in the test with T-47D breast; 1.98 µM in the test on SN12C renal. Moreover, the GI50 in the test with NCI-H522 lung is 1.51 µM; with SF-268 CNS, 1.91 µM. In addition, the TGI with NCI/ADR-RES ovarian amounted to 6.17 µM; with SK-MEL-5 melanoma, 3 µM; in the test with HOP-92 NSCLC, 4.24 µM; with SK-MEL-28 melanoma it was 4.07 µM; in the test on T-47D breast, 5.02 µM; with SN12C renal, 5.75 µM. The TGI in the test on NCI-H522 lung stood at 3.43 µM; with SF-268 CNS it was 4.42 µM.
Turning to `O=c1[nH]cc(CS(=O)(=O)Cc2c[nH]c(=O)[nH]c2=O)c(=O)[nH]1`, the TGI in the test with HT29 colon, in the test with NCI/ADR-RES ovarian, in the test with SK-MEL-5 melanoma, in the test on HOP-92 NSCLC, in the test on SK-MEL-28 melanoma and with T-47D breast was > 100 µM in each case. Also, the TGI with SN12C renal, in the test on NCI-H522 lung and with SF-268 CNS was > 100 µM each time.
